This note sets out measurements from patent US20120115175A1, “METHODS FOR DIAGNOSING ELEVATED RIGHT OR LEFT VENTRICULAR FILLING PRESSURE” (Tufts Medical Center, Inc., priority 2010, published 2012).

For the assay, the system named is human cardiac fibroblasts (hCF). Briefly: Cyclic mechanical stretch of human cardiac fibroblasts: endoglin mRNA (qRT-PCR), endoglin protein (Western blot), sEng release (ELISA). The assay is classed as cell-based. The following applies: for stretch-induced endoglin mRNA expression: pre-treated 1 μM for 2 hours prior to mechanical stretch (10% cyclic stretch, 1 Hz), qRT-PCR. How it is done: As a first step towards understanding increased endoglin expression in heart failure, we exposed cardiac fibroblasts to cyclic mechanical stretch in vitro using a FlexCell apparatus. Briefly, human cardiac fibroblasts (hCF) were cultured onto silastic membranes and exposed to 10% cyclic stretch (1 Hz) for various time points in fibroblast basal media (FBM). We identified a rapid increase in sEng release by enzyme-linked immunosorbent assay (ELISA), followed by increased endoglin mRNA expression by quantitative real-time PCR (qRT-PCR) (FIG. 7).
To begin exploring the mechanism underlying stretch-induced endoglin expression, we pre-treated cultured hCF in FBM with actinomycin-D (Act-D; 1 μM), SB-431542 (an ALK-5 inhibitor; 1 μM), or anti-TGFβ1 antibodies (10 ng/mL, R&D Systems) for 2 hours prior to mechanical stretch. […] Furthermore, ERK-inhibition with 10 μM PD98059 attenuated stretch-induced mEng protein expression and sEng release by Western blot and ELISA (FIG. 9).

[1] abbreviates: hCF in FBM, pre-treated 1 μM for 2 hours prior to mechanical stretch, ELISA.

Numbered stars: 1 amine (or outer) side, 2 acyl side, 3 side chain; on linkers, the order of the positions; unused ones are H or OH. Bridge positions count the residues as written; N and C are the ends. Square brackets hold non-standard residues; d marks the D form. Peptide text beside a SMILES is read from it. I, II: the chains in the order shown. Actinocin(9to1) = Cc1c2oc3c(C)ccc(C(=O)[*:1])c3nc-2c(C(=O)[*:2])c(N)c1=O; NMeV = CN[C@H](C(=O)O)C(C)C; Sar = CNCC(=O)O

As to `Cc1c2oc3c(C)ccc(C(=O)N[C@@H]4C(=O)N[C@H](C(C)C)C(=O)N5CCC[C@H]5C(=O)N(C)CC(=O)N(C)[C@@H](C(C)C)C(=O)O[C@@H]4C)c3nc-2c(C(=O)N[C@@H]2C(=O)N[C@H](C(C)C)C(=O)N3CCC[C@H]3C(=O)N(C)CC(=O)N(C)[C@@H](C(C)C)C(=O)O[C@@H]2C)c(N)c1=O` [Act-D, actinomycin-D] (I: T[dV]P[Sar][NMeV] / II: T[dV]P[Sar][NMeV]; ester I:1-I:C, II:1-II:C; linker I:N-II:N via Actinocin(9to1)), the endoglin protein expression result (hCF in FBM, pre-treated 1 μM for 2 hours prior to mechanical stretch) was “minimal effect”. Moreover, the “stretch-induced endoglin mRNA expression” value (hCF in FBM) is reported as “abolished”. The sEng release result under setting [1] is “minimal effect”.
`COc1cccc(-c2cc(=O)c3ccccc3o2)c1N` [PD98059]: for the setting “hCF, 10 μM, ELISA”, the “stretch-induced sEng release” value is “attenuated”. The “stretch-induced mEng protein expression” value (hCF, 10 μM, Western blot) was “attenuated”.
For the compound `NC(=O)c1ccc(-c2nc(-c3ccc4c(c3)OCO4)c(-c3ccccn3)[nH]2)cc1` [SB-431542], the “stretch-induced endoglin mRNA expression” value (hCF in FBM) is listed as “partially attenuated”. Moreover, under setting [1], the sEng release result is “failed to inhibit”.
